{"source": "patent US6099845A", "about": "“Process for the preparation of Rhus verniciflua extract and anti-cancer composition containing same” (Forest Genetics Research Institute, priority 1997, dated 2000)", "key": {"[1]": {"tested_on": "blood vessel and capillary", "conditions": "cited from earlier work"}, "[2]": {"tested_on": "formation of peroxidized lipids", "conditions": "cited from earlier work"}, "[3]": {"tested_on": "allergy and dermatopathies", "conditions": "cited from earlier work"}, "[4]": {"tested_on": "cancer cells", "conditions": "cited from earlier work"}, "[5]": {"tested_on": "angiogenesis", "conditions": "cited from earlier work"}, "[6]": {"tested_on": "F9 teratocarcinoma cells", "conditions": "cited from earlier work"}, "[7]": {"tested_on": "LamB1 gene", "format": "cell-based, mouse", "conditions": "F9 cells, 7 days; FIG. 8"}, "[8]": {"tested_on": "cancer", "conditions": "cited from earlier work"}, "[9]": {"assay": "DPPH free radical decolorization (anti-oxidative activity)", "format": "biochemical", "conditions": "0.04% ethanol solution, 30 min, room temperature, 517 nm", "procedure": "DPPH(1,1-diphenyl-2-picrylhydrazyl) is a free radical which is very stable in an organic solution. […] Accordingly, it is advantageously employed in measuring anti-oxidative activity of a material.\nDPPH was dissolved in absolute ethanol to a concentration of […](\"DPPH ethanol solution\"). To this solution, the extract of R. verniciflua obtained in Example 1 and Sesamol (Sigma, U.S.A.), a natural anti-oxidant were added to a concentration of 0.04%, respectively to obtain an \"extract ethanol solution\" and a \"Sesamol ethanol solution\".\n2 ml of the DPPH ethanol solution was put into each of two 4 me disposable spectrophotometer cuvettes(Muller ratiolab, Germany). Then, 2 ml of the extract ethanol solution was placed in one cuvette and 2 ml of the Sesamol ethanol solution was put into the other cuvette. The mixtures were reacted at room temperature for 30 min. As a control, a cuvette containing 4 ml of the DPPH ethanol solution was used. The absorption of each cuvette was determined at 517 nm with a spectrophotometer(HP 8453 diode array spectrophotometer). The absorption of the extract ethanol solution was calibrated with the absorption of the control, and the capability of the extract ethanol solution to decolorize the purple color of the DPPH ethanol solution was calculated based on the calibrated absorption of the Sesamol ethanol solution."}}, "note": "Entries after “also recorded” stand apart in the source; their conditions may differ.", "data": [{"smiles": "O=c1c(O)c(-c2ccc(O)c(O)c2)oc2cc(O)ccc12", "note": "(single isomer, unassigned) [Fisetin, 3,3',4',7-tetrahydroxyflavone]", "values": [{"measurement": "protecting blood vessel and capillary", "setting": "[1]", "value": "protecting blood vessel and capillary"}, {"measurement": "suppressing the formation of peroxidized lipids", "setting": "[2]", "value": "suppressing the formation of peroxidized lipids"}, {"measurement": "inhibiting allergy and dermatopathies", "setting": "[3]", "value": "inhibiting allergy and dermatopathies"}]}, {"smiles": "CC1=C(/C=C/C(C)=C/C=C/C(C)=C/C(=O)O)C(C)(C)CCC1", "note": "[retinoic acid]", "values": [{"measurement": "differentiation of cancer cells (in words)", "setting": "[4]", "value": "induce the differentiation of cancer cells to normal cells"}, {"measurement": "inhibitory activity on angiogenesis (in words)", "setting": "[5]", "value": "inhibit angiogenesis"}, {"measurement": "differentiation of F9 teratocarcinoma cells (in words)", "setting": "[6]", "value": "transforms into a primitive developmental form"}, {"measurement": "expression of LamB1 gene (northern blotting)", "setting": "[7]", "value": "converts the gene of the cancer cell to express LamBl gene"}]}, {"smiles": "CC1CCC2(C(=O)O)CCC3(C)C(=CCC4C5(C)CCC(O)C(C)(C)C5CCC43C)C2C1C", "note": "(stereo not shown) [urusolic acid]", "values": [{"measurement": "anti-cancer activity (in words)", "setting": "[8]", "value": "have anti-cancer activity"}, {"measurement": "inhibitory activity on angiogenesis (in words)", "setting": "[5]", "value": "some inhibitory activity on angiogenesis"}, {"measurement": "differentiation of F9 teratocarcinoma cells (in words)", "setting": "[6]", "value": "capable of differentiating F9 teratocarcinoma cells into normal cells; also recorded: induce the differentiation of F9 teratocarcinoma cells by regulating the gene involved in the differentiation"}]}, {"smiles": "Oc1ccc2c(c1)OCO2", "note": "[Sesamol]", "values": [{"measurement": "anti-oxidative activity relative to Sesamol's 100", "setting": "[9]", "value": 100}]}, {"smiles": "CC1(C)CC[C@]2(C(=O)O)CC[C@]3(C)C(=CC[C@@H]4[C@@]5(C)CC[C@H](O)C(C)(C)[C@@H]5CC[C@]43C)[C@@H]2C1", "note": "[oleanolic acid]", "values": [{"measurement": "anti-cancer activity (in words)", "setting": "[8]", "value": "have anti-cancer activity"}, {"measurement": "inhibitory activity on angiogenesis (in words)", "setting": "[5]", "value": "some inhibitory activity on angiogenesis"}, {"measurement": "differentiation of F9 teratocarcinoma cells (in words)", "setting": "[6]", "value": "capable of differentiating F9 teratocarcinoma cells into normal cells; also recorded: induce the differentiation of F9 teratocarcinoma cells by regulating the gene involved in the differentiation"}]}, {"smiles": "C=C1CCC(O)CC1=CC=C1CCCC2(C)C1CCC2C(C)CCCC(C)C", "note": "(stereo not shown) [vitamin D3]", "values": [{"measurement": "differentiation of cancer cells (in words)", "setting": "[4]", "value": "induce the differentiation of cancer cells to normal cells"}, {"measurement": "inhibitory activity on angiogenesis (in words)", "setting": "[5]", "value": "inhibit angiogenesis"}]}, {"smiles": "O=C1c2ccc(O)cc2OC(c2ccc(O)c(O)c2)C1O", "note": "(single isomer, unassigned) [fustin, 3,3',4',7-tetrahydroxyflavanone]", "values": [{"measurement": "protecting blood vessel and capillary", "setting": "[1]", "value": "protecting blood vessel and capillary"}, {"measurement": "suppressing the formation of peroxidized lipids", "setting": "[2]", "value": "suppressing the formation of peroxidized lipids"}, {"measurement": "inhibiting allergy and dermatopathies", "setting": "[3]", "value": "inhibiting allergy and dermatopathies"}]}]}
